Reference: patent US20260077000A1, “METABOLIC MODULATION OF INTRATUMORAL CHOLESTEROL WITH ENGINEERED BACTERIA FOR THE TREATMENT OF CANCERS” (Hong Kong Baptist University, priority 2024, published 2026)

Biological target: recombinant extracellular domain of EGFR (EGFR-ECD) (Homo sapiens, UniProt P00533)
Test: Microscale thermophoresis (MST), EGFR-ECD binding
Description: Recombinant human protein was labeled with a Monolith NT Protein Labeling Kit RED-NHS (Nanotemper, Munich, Germany) and diluted to 50 nM with HEPES buffer (10 mM HEPES, 150 mM NaCl, 0.05% Tween). […] Samples were incubated at room temperature for 5 minutes. The mixtures were centrifuged at 16,000×g for 5 minutes and loaded into capillaries. Microscale thermophoresis measurements were performed using a Monolith NT.115 (Nanotemper, Munich, Germany).

recombinant extracellular domain of EGFR (EGFR-ECD), sequence (P00533 25-645 limits assumed): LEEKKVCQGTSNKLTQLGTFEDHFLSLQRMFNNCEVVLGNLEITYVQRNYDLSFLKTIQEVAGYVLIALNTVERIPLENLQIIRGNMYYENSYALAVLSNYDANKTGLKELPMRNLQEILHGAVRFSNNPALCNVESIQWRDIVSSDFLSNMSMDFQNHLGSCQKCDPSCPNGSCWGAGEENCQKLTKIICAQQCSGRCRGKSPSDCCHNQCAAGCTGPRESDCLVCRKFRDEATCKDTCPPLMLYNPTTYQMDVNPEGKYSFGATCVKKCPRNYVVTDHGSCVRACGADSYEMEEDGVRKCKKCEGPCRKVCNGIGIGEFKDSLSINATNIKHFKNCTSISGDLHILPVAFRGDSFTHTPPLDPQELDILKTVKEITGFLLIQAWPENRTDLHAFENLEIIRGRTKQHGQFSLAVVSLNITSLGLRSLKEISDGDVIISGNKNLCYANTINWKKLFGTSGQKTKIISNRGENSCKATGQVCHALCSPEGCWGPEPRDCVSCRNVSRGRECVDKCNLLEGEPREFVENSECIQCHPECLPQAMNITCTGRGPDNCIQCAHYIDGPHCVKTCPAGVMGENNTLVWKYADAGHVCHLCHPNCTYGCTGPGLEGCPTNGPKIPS

`CC(C)CCC[C@@H](C)[C@H]1CC[C@H]2[C@@H]3CCC4=CC(=O)CC[C@]4(C)[C@H]3CC[C@]12C` [4-C-3, 4-cholesten-3-one] gave a Kd of 5.6 µM.
